Experimental data: article PMC4996933, “Shared active site architecture between archaeal PolD and multi-subunit RNA polymerases revealed by X-ray crystallography” (Nature Communications, 2016)

Molecular target: T1, PolD DP1 (144-622), proofreading exonuclease subunit (Pyrococcus abyssi, UniProt Q9V2F3)
T1 construct: gene polB; residues 144-622, flexible N-terminal region removed; N-terminal 14-His tag cut with TEV; E. coli BL21(DE3) Rosetta2; di-metal site Fe3+/Zn2+; two copies in the asymmetric unit
T1 sequence (Q9V2F3 141-619): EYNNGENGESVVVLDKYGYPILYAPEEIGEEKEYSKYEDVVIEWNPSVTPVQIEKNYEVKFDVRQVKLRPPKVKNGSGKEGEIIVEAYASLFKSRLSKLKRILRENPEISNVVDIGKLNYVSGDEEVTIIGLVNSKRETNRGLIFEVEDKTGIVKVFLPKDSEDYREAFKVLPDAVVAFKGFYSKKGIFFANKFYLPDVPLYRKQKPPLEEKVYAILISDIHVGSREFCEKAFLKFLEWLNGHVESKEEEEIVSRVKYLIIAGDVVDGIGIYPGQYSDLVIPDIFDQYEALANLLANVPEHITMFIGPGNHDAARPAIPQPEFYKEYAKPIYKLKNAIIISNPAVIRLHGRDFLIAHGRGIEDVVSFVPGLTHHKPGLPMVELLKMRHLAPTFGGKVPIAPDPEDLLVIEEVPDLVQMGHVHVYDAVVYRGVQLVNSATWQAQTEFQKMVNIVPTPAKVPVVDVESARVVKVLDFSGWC
Test: X-ray crystallography, co-crystallization, […] Å
Type: binding
Conditions: 5 mM dAMP, pH 6.7, 4 °C; Fe3+/Zn2+ nuclease active site; calcium acetate in crystallization buffer

For `Nc1ncnc2c1ncn2[C@H]1C[C@H](O)[C@@H](COP(=O)(O)O)O1` [dAMP], the “X-ray crystallography, co-crystallization, 2.5 Å” value was “DP1 was co-crystallized together with deoxy-adenosine monophosphate (dAMP)”.
